Laboratory results taken from patent publication US20160143995A1, “Method of Treating Intracellular Infection” (priority 2013, published 2016).
Read-outs that look alike come from different tables or passages of the source.

Tests used:
HIV-1JR-CSF [1] = tested on: HIV-1JR-CSF
[2] = MTS staining for PBMC viability to measure cytotoxicity; assay type: cell-based, human; conditions: human, PHA-stimulated pooled PBMCs, HIV-infected, infected PBMCs, six days, MTS, unit printed only with high-test concentration, read-out: TC50 (50% cytotoxicity)
Experimental: (§1) Pooling (mixing) of mononuclear cells from more than one donor was used to minimize the variability observed between individual donors, which results from quantitative and qualitative differences in HIV infection and overall response to the PHA and IL-2 of primary lymphocyte populations. Each plate contains virus/cell control wells (cells plus virus) and experimental wells (drug plus cells plus virus). In this in vitro assay, PBMC viability remains high throughout the duration of the incubation period. Therefore, infected wells are used in the assessment of both antiviral activity and cytotoxicity. […] The PBMC cultures were maintained for six days following infection at 37° C., 5% CO2. After this period, cell-free supernatant samples were collected for analysis of reverse transcriptase activity. Following removal of supernatant samples, compound cytotoxicity was measured by addition of MTS to the plates for determination of cell viability. Wells were also examined microscopically and any abnormalities were noted. At assay termination, the assay plates were stained with the soluble tetrazolium-based dye MTS (CellTiter®96 Reagent, Promega) to determine cell viability and quantify compound toxicity. MTS is metabolized by the mitochondrial enzymes of metabolically active cells to yield a soluble formazan product, allowing the rapid quantitative analysis of cell viability and compound cytotoxicity. […] At termination of the assay, 10-25 μL of MTS reagent was added per well (10% final concentration based on volume) and the microtiter plates were then incubated for 4-6 hrs at 37° C., 5% CO2 to assess cell viability. Adhesive plate sealers were used in place of the lids, the sealed plate was inverted several times to mix the soluble formazan product and the plate was read spectrophotometrically at 490/650 nm with a Molecular Devices Vmax or SpectraMax Plus plate reader. […]

HIV-1JR-CSF [3] = assay: Anti HIV efficacy evaluation in fresh human PBMCs (reverse transcriptase activity); conditions: for IC50: Human immunodeficiency virus 1, PBMC, in Homo sapiens, 144 h, read-out: IC50 (50% inhibition of virus replication)
[4] = tested on: primary human hepatocytes infected with HBV; assay: Viability (CellTiter-Glo) of primary human hepatocytes infected in vitro with HBV; assay type: cell-based; conditions: forty eight hours after treatment, in the absence of TNF-α
From the text: Primary human hepatocytes were infected in vitro with HBV using an adenoviral delivery system as previously described (Chin R, Earnest-Silveira L, Koeberlein B, Franz S, Zentgraf H, Bowden S, Bock C-T, Torresi J. Modulation of MAPK pathways and cell cycle byreplicating hepatitis B virus: factors contributing tohepatocarcinogenesis. J Hepatology 2007;47:325-37). The delivery system included a green fluorescent protein marker so that the proportion of infected cells could be quantified. Using this system approximately 100% of hepatocytes were infected with HBV. Cells were rested for 2 days after infection and then they were treated with the indicated agents. Forty eight hours after treatment cell viability was assessed using CellTiter-Glo® (Promega, Madison Wis. USA) according to the manufacturer's protocol. This experiment was performed in triplicate and repeated 2 times using 2 independent donors. The highest CellTiter-Glo result from one of the triplicate untreated samples was used to set the 100% viability mark.

[5] = tested on: Mycobacterium tuberculosis (strain H37Rv); assay: Mycobacterium tuberculosis infected mice, lung bacterial burden; assay type: in vivo
HBV = assay: Treatment of HBV infected mice (serum HBV DNA); assay type: in vivo, hepatitis B virus
human PBMCs = assay: MTS staining for PBMC viability to measure cytotoxicity; assay type: cell-based; conditions: fixed concentration (10 ng/mL) of TNF-α versus birinapant alone; within expected biological variability
Experimental: as §1

[6] = tested on: HIV-infected (GFP+) cultured CD4+ lymphocytes; assay: FACS of living (Active-Caspase 3 negative) HIV NL4.3 infected CD4+ lymphocytes; assay type: cell-based, human; conditions: single dose of 10 uM, within 24 hours
[7] = Toxicity of treatment in HBV-infected mice; assay type: in vivo
Experimental: C57BL/6 mice were infected with HBV and 6 days after infection were treated with weekly doses of birinapnat (30 mg/kg administered intraperitoneally) or vehicle control (DMSO) for a total of 3 weeks (3 doses).

## Cc1cn([C@H]2C[C@H](N=[N+]=[N-])[C@@H](CO)O2)c(=O)[nH]c1=O [AZT, Zidovudine]
HIV-1JR-CSF [1]
  Antiviral Index (TC50/IC50): >584
[2]; high-test concentration 1,000 nM
  CC50 at 6 days: > 1000 nM
HIV-1JR-CSF [3]
  IC50: 1.71 nM

## TNF-α
HIV-1JR-CSF [3]; TNF-α alone, 10 ng/mL
  reduction in HIV replication: 35%

## TRAIL: TNF-related apoptosis inducing ligand
[4]
  death of primary human hepatocytes infected with HBV: virtually no efficacy

## CC[C@H](NC(=O)[C@H](C)NC)C(=O)N1C[C@@H](O)C[C@H]1Cc1c(-c2[nH]c3cc(F)ccc3c2C[C@@H]2C[C@H](O)CN2C(=O)[C@H](CC)NC(=O)[C@H](C)NC)[nH]c2cc(F)ccc12 [Birinapant, birinapant]
[5]; mice, intraperitoneal, 30 μg/g weekly x3, started 4 weeks after infection, p=0.012
  reduction in bacterial burden versus DMSO control: 0.33 Log10 CFU/lung
[5]; upon dissection after three weekly doses
  macroscopic appearance of the lungs: pink, uniform and healthier in appearance
HBV; C57BL/6 mice, 30 mg/kg intraperitoneally weekly, after three doses
  reduction of HBV viral load compared to vehicle control: 2 logs
HBV; C57BL/6 mice, 39 days after the first dose, all treated mice
  HBV DNA in serum: no detectable HBV DNA
HBV; HBV infected mice injected intraperitoneally with TNF-α antagonizing antibodies
  efficacy against HBV when TNF-α is antagonized: abrogates the efficacy
[2]; high-test concentration 10 μM
  CC50 at 6 days: 6470 nM
Human PBMCs
  increase in cytotoxicity in the presence of TNF-α: 1.6 fold
HIV-1JR-CSF [3]
  IC50: 250 nM
HIV-1JR-CSF [3]; fixed concentration (10 ng/mL) of TNF-α versus birinapant alone
  increase in antiviral potency in the presence of TNF-α: 6 fold
[4]
  death of primary human hepatocytes infected with HBV: not effective
[6]
  HIV infected cells that die: 55%
[7]
  toxicity related to treatment: No toxicity
